Common to all, as to assay: DTP human tumour cell line panel, 48 h
The subject of test [1] is ACHN renal.
Test [2] has as its system HL-60(TB) leukemia.
Test [3] deals with HS 578T breast.
The test system of test [4] is MCF7 breast.
The test system of test [5] is NCI-H460 lung.
Test [6] concerns OVCAR-5 ovarian.
Test [7] has as its system RXF 393 renal.
The test system of test [8] is SK-OV-3 ovarian.
The subject of test [9] is SW-620 colon.
For test [10], the system named is UACC-62 melanoma.

This passage reports TGI and GI50 results from PubChem BioAssay (NCI).

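Exposure lasted 48 hours, with cells grown in 96-well plates and compounds tested at five concentrations. GI50 = concentration required for 50% inhibition of growth. TGI: total growth inhibition.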

As to `Cc1cc2nc(NS(=O)(=O)c3cc(C)c(Cl)cc3S)[nH]c2cc1C`, the TGI (as a rule, the concentration at which net growth stops) in test [1] was greater than 100 µM; in test [2], greater than 100 µM; in test [3], greater than 100 µM; in [4], greater than 100 µM; in [5], 43.1 µM; in test [6] it was greater than 100 µM. Further, the concentration for total growth inhibition (TGI) in [7], in test [8], in test [9] and in test [10] was greater than 100 µM in each case.
Take `COc1cc(C2c3cc4c(cc3OC(N3CCOCC3)C2C)OCO4)cc(OC)c1OC` (centres undefined): the TGI in test [1] is 50.3 µM; in [3], 0.722 µM; in [4], greater than 77 µM; in test [5], 10.2 µM; in test [6] it was greater than 65.7 µM; in [7], 1.22 µM. The TGI in test [8] was 23.4 µM; in test [9], greater than 100 µM; in test [10], 56.5 µM.
In the case of `CCOc1ccc(-n2c(=O)n3c(Nc4ccc(Cl)cc4)nc4c(c(=O)n(C)c(=O)n4C)n3c2=O)cc1`, the total growth inhibition concentration (TGI) in test [1] was greater than 100 µM; in test [2], 51.7 µM; in test [3] it was greater than 100 µM; in [4], greater than 100 µM; in test [5], 36.1 µM; in test [6], greater than 100 µM. In addition, the figures for the total growth inhibition concentration (TGI) in [7], in test [9] and in test [10] were 43.2 µM, 99.2 µM and 46.3 µM, respectively.
For `O=C(O)[C@H]1NC[C@@H]2ON=C(Br)[C@@H]21`, the total growth inhibition concentration (TGI) in [1], in test [2], in test [3], in test [4], in test [5] and in [6] was greater than 100 µM each time. The TGI in [7], in [8], in [9] and in test [10] was greater than 100 µM in each case.
Regarding `CCNC(=O)CCCCC(=O)c1c(C)[nH]c(/C=C2\N=C(c3ccc[nH]3)C=C2OC)c1C`, the GI50 (usually the concentration at which growth is held to half of that of the control) in test [1] was 1.8 µM; in [2], 2.06 µM; in test [3], 2.04 µM; in test [4], 1.84 µM; in [5] it was 1.95 µM; in [6] it was 6.01 µM. Moreover, the GI50 in test [7] is 2.97 µM; in test [8], 2.59 µM; in [9], 1.94 µM; in [10], 6.11 µM. Further, the concentration for total growth inhibition (TGI) in test [1] is 3.34 µM; in test [2] it was 5.41 µM; in [3], 4.92 µM; in test [4], 4.51 µM; in [5], 4.19 µM; in test [6] it was 20.6 µM. Besides, the total growth inhibition concentration (TGI) is 8.41 µM in test [7], 5.76 µM in [8], 3.51 µM in [9] and 19.3 µM in test [10].
For `COc1ccc(-c2cc(-c3ccc(Nc4ccnc5cc(C(F)(F)F)ccc45)cc3)[nH]c(=O)c2C#N)cc1`, the total growth inhibition concentration (TGI) in test [1] was greater than 100 µM; in test [2], greater than 100 µM; in test [3], 49.6 µM; in test [4] it was greater than 100 µM; in [5], greater than 100 µM; in [6], greater than 100 µM. Also, the total growth inhibition concentration (TGI) in test [7] was greater than 53.5 µM; in [8], greater than 47.4 µM; in [9], greater than 100 µM; in test [10] it was greater than 100 µM.
For the molecule `COc1ccc(CCN2CCOCC2)cc1`, the TGI in [1], in test [2], in [3], in [4], in test [5] and in [6] was greater than 100 µM each time. Further, the total growth inhibition concentration (TGI) in test [7], in test [8], in [9] and in test [10] was greater than 100 µM throughout.
For `FC(F)(F)c1nc2cc(SSc3cc4nc(C(F)(F)F)[nH]c4cc3Cl)c(Cl)cc2[nH]1`, the TGI in test [1], in test [2], in [3], in test [4], in [5] and in test [6] was greater than 100 µM each time. Further, the TGI in test [7], in [8], in test [9] and in [10] was greater than 100 µM in each case.
Turning to `CCOC(=O)c1ccc2c(=O)n3c(C(=O)OCC)ccc3c(=O)n12`, the TGI in test [1], in test [2], in test [3], in test [4], in test [5] and in [6] was greater than 100 µM throughout. In addition, the TGI in test [7], in test [8], in test [9] and in test [10] was greater than 100 µM in each case.
Consider `OC(C1CCCC1=N/N=C1/CCCC1C(O)(C(F)(F)Cl)C(F)(F)Cl)(C(F)(F)Cl)C(F)(F)Cl` (centres undefined), for which the TGI in test [1], in [2], in test [3], in [4], in test [5] and in test [6] was greater than 10 µM in each case. Besides, the TGI in test [7], in test [8], in test [9] and in [10] was greater than 10 µM throughout.
Consider `CC(Nc1cc(=O)n(C)c(=O)[nH]1)c1ccccc1` (centres undefined), for which the concentration for total growth inhibition (TGI) in test [1], in [2], in test [3], in test [4], in [5] and in [6] was greater than 100 µM each time. Also, the TGI in test [7], in [9] and in [10] was greater than 100 µM throughout.
Take `C/C=C/COc1cc(NC(=S)c2ccoc2C)ccc1OC`: the TGI in test [2] is greater than 100 µM; in test [3] it was 90.7 µM; in test [4], greater than 100 µM; in test [6], greater than 100 µM; in [7] it was greater than 100 µM; in test [8], greater than 100 µM. In addition, the concentration for total growth inhibition (TGI) in test [9] and in test [10] was greater than 100 µM each time.
As for `COc1cc(OC)c(NC2=NCCO2)cc1Cl`, the TGI was greater than 100 µM in test [1]; greater than 100 µM in [2]; greater than 100 µM in [3]; greater than 100 µM in [4]; 45.9 µM in test [5]; greater than 100 µM in test [6]. The concentration for total growth inhibition (TGI) in test [7], in [9] and in test [10] was greater than 100 µM throughout.
